The text below walks through data of publication PMC8382989 (Biochemistry, 2013).

The target of data set [1] is T1, human RNR subunit α (H-α) (Homo sapiens, UniProt P23921).
T1 sequence (P23921 1-792): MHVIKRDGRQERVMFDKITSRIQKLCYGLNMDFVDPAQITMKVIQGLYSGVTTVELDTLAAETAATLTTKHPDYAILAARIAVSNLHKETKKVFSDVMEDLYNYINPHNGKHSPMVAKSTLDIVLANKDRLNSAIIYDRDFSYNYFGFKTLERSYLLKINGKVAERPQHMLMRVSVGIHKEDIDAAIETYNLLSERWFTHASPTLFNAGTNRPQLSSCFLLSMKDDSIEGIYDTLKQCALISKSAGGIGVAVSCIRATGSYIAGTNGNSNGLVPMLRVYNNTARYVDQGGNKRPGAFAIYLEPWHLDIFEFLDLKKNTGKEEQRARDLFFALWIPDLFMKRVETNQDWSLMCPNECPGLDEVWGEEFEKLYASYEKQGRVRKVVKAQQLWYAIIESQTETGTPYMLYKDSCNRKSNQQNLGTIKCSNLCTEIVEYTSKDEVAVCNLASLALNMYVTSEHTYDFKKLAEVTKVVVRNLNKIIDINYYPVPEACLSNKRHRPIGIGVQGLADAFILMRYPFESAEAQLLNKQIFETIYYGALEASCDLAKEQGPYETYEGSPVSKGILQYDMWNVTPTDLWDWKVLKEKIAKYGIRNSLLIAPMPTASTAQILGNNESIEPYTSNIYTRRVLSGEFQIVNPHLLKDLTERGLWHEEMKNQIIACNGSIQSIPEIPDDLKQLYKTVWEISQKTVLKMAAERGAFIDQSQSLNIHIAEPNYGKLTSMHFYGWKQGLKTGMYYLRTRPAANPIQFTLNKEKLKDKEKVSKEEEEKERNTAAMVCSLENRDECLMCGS
Kind of data set: CDP reductase activity titration with dATP. In kind it is biochemical.

For data set [2], the target named is E. coli RNR subunit α, catalytic body alone (E-CB) (Escherichia coli, UniProt P00452). Kind of data set: fluorescence anisotropy titration. In kind it is binding. (In general: Polarisation of emitted light reports the rotation of a fluorescent probe.)
Data set [3] deals with T2, human RNR subunit α, N-terminal domain alone (H-NTD) (Homo sapiens, UniProt P23921).
T2 sequence (P23921 1-91): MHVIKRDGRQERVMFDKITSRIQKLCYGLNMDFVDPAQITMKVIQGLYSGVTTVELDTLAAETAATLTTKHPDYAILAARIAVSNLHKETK
In words: fluorescence anisotropy titration. In kind it is binding.

Data set [4] concerns the molecule itself. Kind of data set: SEC.
Data set [5] deals with the molecule itself. In words: SEC. The source holds these as a separate data set. In general terms: Size exclusion chromatography separates by hydrodynamic size, large species first.

Read-outs that look alike come from different tables or passages of the source.

Chain of E. coli RNR subunit α, catalytic body alone (E-CB) (P00452 94-761): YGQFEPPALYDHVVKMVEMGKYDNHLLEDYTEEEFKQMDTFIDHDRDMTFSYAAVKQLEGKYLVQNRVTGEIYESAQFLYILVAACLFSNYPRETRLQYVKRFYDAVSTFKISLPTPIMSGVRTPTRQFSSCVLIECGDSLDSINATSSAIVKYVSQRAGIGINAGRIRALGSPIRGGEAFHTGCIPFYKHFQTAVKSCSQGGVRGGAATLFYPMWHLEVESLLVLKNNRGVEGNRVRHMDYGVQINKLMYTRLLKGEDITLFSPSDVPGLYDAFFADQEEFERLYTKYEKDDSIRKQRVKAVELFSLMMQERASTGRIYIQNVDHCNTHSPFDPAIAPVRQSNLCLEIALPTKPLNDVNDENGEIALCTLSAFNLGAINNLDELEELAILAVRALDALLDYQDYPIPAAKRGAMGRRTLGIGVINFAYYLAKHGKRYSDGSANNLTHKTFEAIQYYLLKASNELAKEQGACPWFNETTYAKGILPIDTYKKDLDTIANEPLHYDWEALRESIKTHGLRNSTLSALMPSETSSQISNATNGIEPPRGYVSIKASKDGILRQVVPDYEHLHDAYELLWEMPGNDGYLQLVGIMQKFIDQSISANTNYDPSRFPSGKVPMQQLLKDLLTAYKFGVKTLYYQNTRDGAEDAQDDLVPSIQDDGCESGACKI

In data set [1], `Nc1ncnc2c1ncn2[C@H]1C[C@H](O)[C@@H](COP(=O)(O)OP(=O)(O)OP(=O)(O)O)O1` [dATP] yielded an EC50 of 33 ± 7 µM.
For Texas Red-5-dATP, the dissociation constant Kd was 5.3 ± 0.3 µM in data set [2] and 153 ± 19 µM in data set [3].

B1: E. coli ribonucleotide reductase subunit β (enzyme)
chain: AYTTFSQTKNDQLKEPMFFGQPVNVARYDQQKYDIFEKLIEKQLSFFWRPEEVDVSRDRIDYQALPEHEKHIFISNLKYQTLLDSIQGRSPNVALLPLISIPELETWVETWAFSETIHSRSYTHIIRNIVNDPSVVFDDIVTNEQIQKRAEGISSYYDELIEMTSYWHLLGEGTHTVNGKTVTVSLRELKKKLYLCLMSVNALEAIRFYVSFACSFAFAERELMEGNAKIIRLIARDEALHLTGTQHMLNLLRSGADDPEMAEIAEECKQECYDLFVQAAQQEKDWADYLFRDGSMIGLNKDILCQYVEYITNIRMQAVGLDLPFQTRSNPIPWINTWLVSDNVQVAPQEVEVSSYLVGQIDSEVDTDDLSNFQL
As for B1, the “stoichiometry N” value in data set [4] came to 2.

B2: human ribonucleotide reductase subunit α (enzyme, UniProt P23921 1-792, looked up)
chain: MHVIKRDGRQERVMFDKITSRIQKLCYGLNMDFVDPAQITMKVIQGLYSGVTTVELDTLAAETAATLTTKHPDYAILAARIAVSNLHKETKKVFSDVMEDLYNYINPHNGKHSPMVAKSTLDIVLANKDRLNSAIIYDRDFSYNYFGFKTLERSYLLKINGKVAERPQHMLMRVSVGIHKEDIDAAIETYNLLSERWFTHASPTLFNAGTNRPQLSSCFLLSMKDDSIEGIYDTLKQCALISKSAGGIGVAVSCIRATGSYIAGTNGNSNGLVPMLRVYNNTARYVDQGGNKRPGAFAIYLEPWHLDIFEFLDLKKNTGKEEQRARDLFFALWIPDLFMKRVETNQDWSLMCPNECPGLDEVWGEEFEKLYASYEKQGRVRKVVKAQQLWYAIIESQTETGTPYMLYKDSCNRKSNQQNLGTIKCSNLCTEIVEYTSKDEVAVCNLASLALNMYVTSEHTYDFKKLAEVTKVVVRNLNKIIDINYYPVPEACLSNKRHRPIGIGVQGLADAFILMRYPFESAEAQLLNKQIFETIYYGALEASCDLAKEQGPYETYEGSPVSKGILQYDMWNVTPTDLWDWKVLKEKIAKYGIRNSLLIAPMPTASTAQILGNNESIEPYTSNIYTRRVLSGEFQIVNPHLLKDLTERGLWHEEMKNQIIACNGSIQSIPEIPDDLKQLYKTVWEISQKTVLKMAAERGAFIDQSQSLNIHIAEPNYGKLTSMHFYGWKQGLKTGMYYLRTRPAANPIQFTLNKEKLKDKEKVSKEEEEKERNTAAMVCSLENRDECLMCGS
With B2, the “stoichiometry N” value in data set [5] was found to be 6.

B3: human D57N-α (point mutant of human RNR subunit α) (enzyme, UniProt P23921 1-792, looked up)
chain: MHVIKRDGRQERVMFDKITSRIQKLCYGLNMDFVDPAQITMKVIQGLYSGVTTVELNTLAAETAATLTTKHPDYAILAARIAVSNLHKETKKVFSDVMEDLYNYINPHNGKHSPMVAKSTLDIVLANKDRLNSAIIYDRDFSYNYFGFKTLERSYLLKINGKVAERPQHMLMRVSVGIHKEDIDAAIETYNLLSERWFTHASPTLFNAGTNRPQLSSCFLLSMKDDSIEGIYDTLKQCALISKSAGGIGVAVSCIRATGSYIAGTNGNSNGLVPMLRVYNNTARYVDQGGNKRPGAFAIYLEPWHLDIFEFLDLKKNTGKEEQRARDLFFALWIPDLFMKRVETNQDWSLMCPNECPGLDEVWGEEFEKLYASYEKQGRVRKVVKAQQLWYAIIESQTETGTPYMLYKDSCNRKSNQQNLGTIKCSNLCTEIVEYTSKDEVAVCNLASLALNMYVTSEHTYDFKKLAEVTKVVVRNLNKIIDINYYPVPEACLSNKRHRPIGIGVQGLADAFILMRYPFESAEAQLLNKQIFETIYYGALEASCDLAKEQGPYETYEGSPVSKGILQYDMWNVTPTDLWDWKVLKEKIAKYGIRNSLLIAPMPTASTAQILGNNESIEPYTSNIYTRRVLSGEFQIVNPHLLKDLTERGLWHEEMKNQIIACNGSIQSIPEIPDDLKQLYKTVWEISQKTVLKMAAERGAFIDQSQSLNIHIAEPNYGKLTSMHFYGWKQGLKTGMYYLRTRPAANPIQFTLNKEKLKDKEKVSKEEEEKERNTAAMVCSLENRDECLMCGS
As for B3, in data set [5], the “stoichiometry N” value is 2.

One may read the EC50 as the concentration needed to bring the measured effect to its halfway point. Low values mean an effect from little substance, high ones a need for much substance. Usually Kd stands for the equilibrium constant for the complex coming apart. High values mean weaker binding, low ones tighter binding. One may read the stoichiometry N as the number of molecules, sites or subunits per partner or assembly.
